From US10022412B2, “Composition for preventing or alleviating periodontal diseases, containing, as active ingredient, mangosteen extract or α- or γ-mangosteen” (Medi Bio Lab. co., Ltd., priority 2014, dated 2018)
≈ marks a conversion by molar mass, not a printed value. Read-outs that look alike come from different tables or passages of the source.

System: Streptococcus mutans ATCC 25175
Assay: MIC test for Streptococcus mutans (NCCLS)
Type: cell-based
Excerpt: Generally there are minimum inhibitory concentration (hereinafter, referred to MIC) test and time-kill assay test as test methods that become the standard for judging utility of antibiotics, when a new antibiotics is developed.
MIC TEST is a test method deciding minimum inhibitory concentration where bacteria cannot grow well, namely minimal usage of antibiotics for obtaining purposed antibacterial efficacy, and Time-Kill assay test is a test method deciding usage of antibiotics that can maintain purposed efficacy for certain time range. Each test was performed, in order to test whether mangosteem extracts have proliferation inhibiting efficacy against Streptocccus Mutans (Streptocccus Mutans ATCC […]) to a certain degree.
MIC test for Streptococcus mutans (Streptococcus mutans ATCC 25175) was progressed according to the American clinical test standard method, NCCLS (National Committee for Clinical Laboratory Standards). To do comparative test of antibacterial ability of mangosteen extracts against Streptococcus mutans, after preparing each analysis sample as shown in the following table 5, that is the concentration of each analysis sample was 0, 1, 2, 3, 4, 5, 6, 7, 8, 9 and 10 ul, and the concentration of used Streptococcus mutans bacteria finally became 1×10^5 at the ratio of 50% by weight, and the concentration of DMSO (dimethyl sulfoxide) used as an analysis sample solvent finally became 1% by weight, and BHI medium (Brain heart infusion: Peptic Digest of Animal tissue, Sodium Chloride, Dextrose, Pancreatic Digest of Gelation, Disodium Phosphate, Final PH7.4+-0.2; Difco Company) was added for the remaining 40% by weight, they were used for the test. […]
After adding the samples in a microtube (duplicate) and culturing at 37° C. for 24 hrs, growth inhibit ion degree was observed by measuring absorbance at 500 nm.

MIC (S. mutans ATCC 25175, 37° C. 24 hrs, absorbance 500 nm)	MIC (Streptococcus mutans, ATCC25175, S. mutans ATCC 25175, 37° C. 24 hrs, absorbance 500 nm, read-out: MIC) [mg/L]	Compound	MIC (Streptococcus mutans, ATCC25175, 24 h) [mg/L]
1.0(ug/ml)	1 (≈ 2.44 µM)	COc1c(O)cc2oc3cc(O)c(CC=C(C)C)c(O)c3c(=O)c2c1CC=C(C)C [Alpha-mangosteen, alpha-mangosteen]	–
–	–	CC(C)=CCc1c(O)cc2oc3cc(O)c(O)c(CC=C(C)C)c3c(=O)c2c1O [Gamma-mangosteen, gamma-mangosteen]	4 (≈ 10.1 µM)
